Results as given in patent US8039616B2, “Benzodiazepine derivatives for treating hepatitis C infection” (AstraZeneca AB, priority 2005, dated 2011).

Biological target: T1, HCV Polymerase (Hepatitis C virus genotype 1a, UniProt P27958)
T1 construct: the HCV Polymerase was expressed and purified by Prof Alistair Hawkins; made in house
Assay: Polymerase 96 well microtitre plate based IC50 assay (33P-UTP incorporation, streptavidin FlashPlates)
Type: biochemical
Conditions: polyA/biotinylated-U13 template-primer, 100 minutes at 25° C.
From the text: Polymerase 96 Well Microtitre Plate Based IC50 Assay
Inhibitors of HCV Polymerase can be detected radioactively by monitoring the incorporation of ^33P-UTP within an RNA template/Bi-primer system using streptavidin coated FlashPlates. The template and primer for the reaction can be bought externally from Amersham (Poly A) and MWG-Dharmacon (Biotinylated-U13). The cold UTP can be purchased from Roche and the HCV Polymerase was expressed and purified by Prof Alistair Hawkins at Newcastle University, UK.
50 μl substrate, 40 μl enzyme, 10 μl compound=100 μl assay
Compounds are diluted so that DMSO remains 10% at all times. E.g. 5 μl compound (10 mM)+5 μl DMSO+90 μl Buffer (see below for buffer)
Some 20 mM Tris-HCl, pH 7.5, 5 mM MgCl2, 25 mM KCL, 3 mM DTT and 0.05% BSA is made up.
The PolyA and Biotinylated U13 are annealed at 70° C. for 5 minutes to 40 μM U13 (212 μg/ml polyA.) and cooled gently on ice prior to use (110 μl primer (80 μM)+5.5 μl poly A+104.5 μl dH20.). Some 200 μl annealed primer/template is mixed with 12.8 μl UTP (1 mM stock), 25.6 μl 33p-UTP and 31761.6 μl Buffer to make the substrate mix.
From IC50 dilution plates 10 μl are transferred from column 3 into columns 3 and 3 on two separate assay plates. This is repeated for all compound dilutions to 2 separate assay plates. Then 10 μl 10% DMSO solution is added to positive and negative controls (see plate map below). In addition, 40 μl 20 mM Tris-HCl buffer is added to negative controls.
Then 50 μl substrate mix is added to all wells.
Then 40 μl enzyme mix each is added to all other wells and the reaction is left for 100 minutes shaking at 25° C.
The reaction is terminated with the addition of 100 μl, 100 mM EDTA and the volume is transferred to a streptavidin coated flash plate, covered and left for an hour.
All plates are washed three times in SkanWasher plate-washer (Skatron Instruments) under programme ‘AH’. The wash buffer contains, 0.01M phosphate buffer, 0.0027M potassium chloride and 0.137M sodium chloride, pH 7.4 at 25° C., 0.05% Tween
All plate are recovered and the cpmB read in the TopCount (supplied by DPM solutions), protocol 6.

T1 sequence (P27958 2421-3011): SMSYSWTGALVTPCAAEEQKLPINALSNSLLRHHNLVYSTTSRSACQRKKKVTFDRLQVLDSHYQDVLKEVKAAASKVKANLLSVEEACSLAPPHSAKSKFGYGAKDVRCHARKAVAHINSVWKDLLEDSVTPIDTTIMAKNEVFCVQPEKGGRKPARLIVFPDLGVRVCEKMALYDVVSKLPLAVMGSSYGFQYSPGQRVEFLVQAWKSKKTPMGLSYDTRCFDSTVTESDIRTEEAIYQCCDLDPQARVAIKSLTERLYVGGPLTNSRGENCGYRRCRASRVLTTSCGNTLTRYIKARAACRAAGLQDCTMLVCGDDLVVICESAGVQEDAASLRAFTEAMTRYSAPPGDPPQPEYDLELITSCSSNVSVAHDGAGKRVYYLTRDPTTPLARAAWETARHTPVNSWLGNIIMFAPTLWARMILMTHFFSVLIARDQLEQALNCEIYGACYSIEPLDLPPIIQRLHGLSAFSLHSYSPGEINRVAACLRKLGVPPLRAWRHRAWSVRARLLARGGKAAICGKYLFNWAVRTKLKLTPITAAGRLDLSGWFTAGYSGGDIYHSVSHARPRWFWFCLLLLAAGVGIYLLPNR

| Compound | IC50 [nM] |
| --- | --- |
| CCOc1ccccc1C(=O)NC1N=C(c2ccc(Cl)cc2)c2ccccc2NC1=O (stereo not drawn) [Example 1, N-[5-(4-Chloro-phenyl)-2-oxo-2,3-dihydro-1H-benzo[e][1,4]diazepin-3-yl]-2-ethoxy-benzamide] | > 1000 |
| CCOc1ccccc1C(=O)N[C@H]1N=C(c2ccc(Cl)cc2)c2ccccc2NC1=O [Example 2, (S)—N-[5-(4-Chloro-phenyl)-2-oxo-2,3-dihydro-1H-benzo[e][1,4]diazepin-3-yl]-2-ethoxy-benzamide] | > 1000 |
| COc1ccc(OC)c(C(=O)NC2N=C(c3ccc(Cl)cc3)c3ccccc3NC2=O)c1 (stereo not drawn) [Example 3, N-[5-(4-Chloro-phenyl)-2-oxo-2,3-dihydro-1H-benzo[e][1,4]diazepin-3-yl]-2,5-dimethoxy-benzamide] | < 1000 |
| COc1ccc(OC)c(C(=O)N[C@H]2N=C(c3ccc(Cl)cc3)c3ccccc3NC2=O)c1 [Example 4, (S)—N-[5-(4-Chloro-phenyl)-2-oxo-2,3-dihydro-1H-benzo[e][1,4]diazepin-3-yl]-2,5-dimethoxy-benzamide] | < 1000 |
| COc1ccc(OC)c(C(=O)N[C@@H]2N=C(c3ccc(Cl)cc3)c3ccccc3NC2=O)c1 [Example 5, (R)—N-[5-(4-Chloro-phenyl)-2-oxo-2,3-dihydro-1H-benzo[e][1,4]diazepin-3-yl]-2,5-dimethoxy-benzamide] | > 1000 |
| COc1ccc(F)cc1C(=O)NC1N=C(c2ccc(Cl)cc2)c2ccccc2NC1=O (stereo not drawn) [Example 6, N-[5-(4-Chloro-phenyl)-2-oxo-2,3-dihydro-1H-benzo[e][1,4]diazepin-3-yl]-5-fluoro-2-methoxy-benzamide] | > 1000 |
| COc1ccc(F)cc1C(=O)N[C@H]1N=C(c2ccc(Cl)cc2)c2ccccc2NC1=O [Example 7, (S)—N-[5-(4-Chloro-phenyl)-2-oxo-2,3-dihydro-1H-benzo[e][1,4]diazepin-3-yl]-5-fluoro-2-methoxy-benzamide] | > 1000 |
| COc1ccc(F)cc1C(=O)N[C@@H]1N=C(c2ccc(Cl)cc2)c2ccccc2NC1=O [Example 8, (R)—N-[5-(4-Chloro-phenyl)-2-oxo-2,3-dihydro-1H-benzo[e][1,4]diazepin-3-yl]-5-fluoro-2-methoxy-benzamide] | > 1000 |
| COc1ccc(Cl)cc1C(=O)NC1N=C(c2ccc(Cl)cc2)c2ccccc2NC1=O (stereo not drawn) [Example 9, 5-Chloro-N-[5-(4-chloro-phenyl)-2-oxo-2,3-dihydro-1H-benzo[e][1,4]diazepin-3-yl]-2-methoxy-benzamide] | < 1000 |
| COc1ccc(Cl)cc1C(=O)N[C@H]1N=C(c2ccc(Cl)cc2)c2ccccc2NC1=O [Example 10, (S)-5-Chloro-N-[5-(4-chloro-phenyl)-2-oxo-2,3-dihydro-1H-benzo[e][1,4]diazepin-3-yl]-2-methoxy-benzamide] | < 1000 |
| COc1ccc(Cl)cc1C(=O)N[C@@H]1N=C(c2ccc(Cl)cc2)c2ccccc2NC1=O [Example 11, (R)-5-Chloro-N-[5-(4-chloro-phenyl)-2-oxo-2,3-dihydro-1H-benzo[e][1,4]diazepin-3-yl]-2-methoxy-benzamide] | > 1000 |
| O=C(NC1N=C(c2ccc(Cl)cc2)c2ccccc2NC1=O)c1sccc1Br (stereo not drawn) [Example 12, 3-Bromo-thiophene-2-carboxylic acid [5-(4-chloro-phenyl)-2-oxo-2,3-dihydro-1H-benzo[e][1,4]diazepin-3-yl]-amide] | > 1000 |
